US20170055529A1, “BROAD SPECTRUM WEED CONTROL IN FLOODED RICE BY IN-WATER APPLICATION OF AUXIN HERBICIDES” (priority 2015, published 2017)

Tests used:
Assay type in all cases: in vivo
[1] = test system: ECHCG = Echinochloa crus-galli (barnyardgrass); assay: Field trial in-water herbicidal efficacy
Method: (§1) Field trials were conducted in rice using standard herbicide small plot research methodology. Plot size was 2 square meters (m^2) using 1.6 meter (m) diameter rings placed into the rice paddy soil with capability for flooding to maintain good rice cultural practices and rice growing conditions. There were 3 replicates per treatment. Rice was Japonica type that was hand-transplanted into the saturated soil in the rings as per normal cultural practices. The transplanted rice crop was grown using normal cultural practices for fertilization, watering, flooding and maintenance to ensure good growth of the crop and the weeds under transplanted rice conditions in Taiwan.
(§2) Treatments were applied by mixing the treatments with deionized water just prior to water-injection application by hand to multiple sides in the ring plots. For each 2 m^2 plot, 50 mL deionized water was mixed with the appropriate formulated product amounts to treat 2 m^2 to achieve the desired application rates based on unit area of application (hectare). Ring plot water depth was kept at 3 to 7 cm deep before and after water-injection application.
(§3) The rice and weeds were evaluated at 28 days after application (DAA). Triclopyr triethylammonium (as Garlon® 3 A, 360 g ae/L); fluroxypyr methylheptyl ester (meptyl or MHE, as Starane® Ultra, 333 g ae/L); 2,4-dichlorophenoxyacetic acid dimethylammonium (2,4-D AMINE, 400 g ae/L SL); penoxsulam (as Grasp® SC, 240 g ai/L); and bensulfuron-methyl (as LONDAX® 10% WAY WP) were used.
(§4) The treated and control plots were rated at 28 days after application. Ratings were based on percent (%) visual weed control, where 0 corresponds to no control and 100 corresponds to complete control.

[2] = test system: SCPJU = Schoenoplectus juncoides (Japanese bulrush); assay: Field trial in-water herbicidal efficacy
Method: as §1, §2, §3, §4

[3] = test system: CYPDI = Cyperus difformis (small-flower flatsedge); assay: Field trial in-water herbicidal efficacy
Method: as §1, §2, §3, §4

[4] = test system: LEFCH = Leptochloa chinensis (Chinese sprangletop); assay: Field trial in-water herbicidal efficacy
Method: as §1, §2, §3, §4

[5] = test system: MOOVA = Monochoria vaginalis (monochoria); assay: Field trial in-water herbicidal efficacy
Method: as §1, §2, §3, §4

[6] = test system: ORYSP = Oryza sativa Japonica (transplanted paddy rice); assay: Field trial in-water application, crop tolerance
Method: as §1, §2, §3, §4

[7] = test system: ECHCG = Echinochloa crus-galli (barnyardgrass); assay: Greenhouse in-water herbicidal activity (small pots)
Source text: (§5) Weed seeds of the desired test plant species were planted in puddled soil (mud) prepared by mixing a non-sterilized mineral soil (approximately 50 percent silt, 26 percent clay, and 24 percent sand, with a pH of about 7.6 and an organic matter content of about 2.9 percent) and water at a 1:1 volumetric ratio. The prepared mud was dispensed in 365 milliliter (mL) aliquots into 16-ounce (oz.) non-perforated plastic pots with a surface area of 86.59 square centimeters (cm^2) leaving a headspace of 3 centimeters (cm) in each pot. Mud was allowed to dry overnight prior to planting or transplanting. Rice seeds were planted in Sun Gro® MetroMix® 360 planting mixture, which typically has a pH of 6.0 to 6.8 and an organic matter content of about 30 percent, in plastic plug trays. Seedlings at the second or third leaf stage of growth were transplanted into 840 mL of mud contained in 32-oz. non-perforated plastic pots with a surface area of 86.59 cm^2 four days prior to herbicide application. The paddy was created by filling the headspace of the pots with 2.5 to 3 cm of water. When required to ensure good germination and healthy plants, a fungicide treatment and/or other chemical or physical treatment was applied. The plants were grown for 4-22 days (d) in a greenhouse with an approximate 14-hour (h) photoperiod which was maintained at about 29° C. during the day and 26° C. during the night. Nutrients were added as Osmocote® (19:6:12, Nitrogen:Phosphorus:Potassium (N:P:K)+minor nutrients) at 2 g per 16 oz. pot and 4 g per 32 oz. pot. Water was added on a regular basis to maintain the paddy flood, and supplemental lighting was provided with overhead metal halide 1000-Watt lamps as necessary. The plants were used for testing when they reached the second or third true leaf stage.
(§6) Triclopyr triethylammonium (as Grandstand® R, 359.5 grams acid equivalent per liter (g ae/L)); fluroxypyr methylheptyl ester (meptyl or MHE, as Starane™, 179.8 g ae/L); 2,4-dichlorophenoxyacetic acid dimethylammonium (2,4-D DMA, as Weedar® 64, 455.4 g ae/L); and penoxsulam (as Grasp® SC, 239.7 grams active ingredient per liter (g ai/L) were used. Measured amounts of formulated compounds were placed in individual 120 mL glass vials and were dissolved in 40 mL of an aqueous mixture containing 1.25% volume per volume (v/v) Agri-Dex® crop oil concentrate. Generally, multiple concentrations were tested utilizing the same stock solution. Applications were made by injecting an appropriate amount of the application solution into the aqueous layer of the paddy. Control plants were treated in the same manner with the solvent blank.
(§7) The treated plants and control plants were placed in a greenhouse as described above and water was added as needed to maintain a paddy flood. After approximately 3 weeks the condition of the test plants, compared with that of the untreated plants, was determined visually and scored on a scale of 0 to 100 percent where 0 corresponds to no injury or growth reduction and 100 corresponds to complete kill.

[8] = test system: CYDPI = Cyperus difformis (small-flower flatsedge); assay: as above
Source text: as §5, §6, §7

[9] = test system: SCPJU = Schoenoplectus juncoides (Japanese bulrush); assay: as above
Source text: as §5, §6, §7

[10] = test system: MOOVA = Monochoria vaginalis (monochoria); assay: as above
Source text: as §5, §6, §7

| SMILES | Percent (%) Visual Injury Ratings - 28 DAA, ECHCG ([1]; 140 g ae/ha in-water 10 DAT) | Percent (%) Visual Injury Ratings - 28 DAA, ECHCG ([1]; 280 g ae/ha in-water 10 DAT) | Percent (%) Visual Injury Ratings - 28 DAA, ECHCG ([1]; 560 g ae/ha in-water 10 DAT) | Percent (%) Visual Injury Ratings - 28 DAA, SCPJU ([2]; 140 g ae/ha in-water 10 DAT) | Percent (%) Visual Injury Ratings - 28 DAA, SCPJU ([2]; 280 g ae/ha in-water 10 DAT) | Percent (%) Visual Injury Ratings - 28 DAA, SCPJU ([2]; 560 g ae/ha in-water 10 DAT) | Percent (%) Visual Injury Ratings - 28 DAA, CYPDI ([3]; 140 g ae/ha in-water 10 DAT) | Percent (%) Visual Injury Ratings - 28 DAA, CYPDI ([3]; 280 g ae/ha in-water 10 DAT) | Percent (%) Visual Injury Ratings - 28 DAA, CYPDI ([3]; 560 g ae/ha in-water 10 DAT) | Percent (%) Visual Injury Ratings - 28 DAA, LEFCH ([4]; 140 g ae/ha in-water 10 DAT) | Percent (%) Visual Injury Ratings - 28 DAA, LEFCH ([4]; 280 g ae/ha in-water 10 DAT) | Percent (%) Visual Injury Ratings - 28 DAA, LEFCH ([4]; 560 g ae/ha in-water 10 DAT) | Percent (%) Visual Injury Ratings - 28 DAA, MOOVA ([5]; 140 g ae/ha in-water 10 DAT) | Percent (%) Visual Injury Ratings - 28 DAA, MOOVA ([5]; 280 g ae/ha in-water 10 DAT) | Percent (%) Visual Injury Ratings - 28 DAA, MOOVA ([5]; 560 g ae/ha in-water 10 DAT) | Percent (%) Visual Injury Ratings - 28 DAA, ORYSP ([6]; 140 g ae/ha in-water 10 DAT) | Percent (%) Visual Injury Ratings - 28 DAA, ORYSP ([6]; 280 g ae/ha in-water 10 DAT) | Percent (%) Visual Injury Ratings - 28 DAA, ORYSP ([6]; 560 g ae/ha in-water 10 DAT) | Percent (%) Visual Injury Ratings - 20 DAA, ECHCG ([7]; 280 g ae/ha in-water) | Percent (%) Visual Injury Ratings - 20 DAA, ECHCG ([7]; 560 g ae/ha in-water) | also measured |
| --- | --- | --- | --- | --- | --- | --- | --- | --- | --- | --- | --- | --- | --- | --- | --- | --- | --- | --- | --- | --- | --- |
| O=C(O)COc1nc(Cl)c(Cl)cc1Cl [Triclopyr triethanolamine (Garlon ® 3A), triethylammonium 2[(3,5,6-trichloro-2-pyridinyl)oxy]acetate] | 0.0% | 0.0% | 0.0% | 0.0% | 0.0% | 0.0% | 0.0% | 0.0% | 0.0% | 0.0% | 0.0% | 0.0% | 0.0% | 0.0% | 0.0% | 0% | 0% | 0% | 40% | 70% | Percent (%) Visual Injury Ratings - 20 DAA, ECHCG ([7]; 1120 g ae/ha in-water): 85%; Percent (%) Visual Injury Ratings - 20 DAA, CYDPI ([8]; 280 g ae/ha in-water): 100%; Percent (%) Visual Injury Ratings - 20 DAA, CYDPI ([8]; 560 g ae/ha in-water): 100%; Percent (%) Visual Injury Ratings - 20 DAA, CYDPI ([8]; 1120 g ae/ha in-water): 100%; Percent (%) Visual Injury Ratings - 20 DAA, SCPJU ([9]; 280 g ae/ha in-water): 70%; Percent (%) Visual Injury Ratings - 20 DAA, SCPJU ([9]; 560 g ae/ha in-water): 95%; Percent (%) Visual Injury Ratings - 20 DAA, SCPJU ([9]; 1120 g ae/ha in-water): 100%; Percent (%) Visual Injury Ratings - 20 DAA, MOOVA ([10]; 280 g ae/ha in-water): 95%; Percent (%) Visual Injury Ratings - 20 DAA, MOOVA ([10]; 560 g ae/ha in-water): 99%; Percent (%) Visual Injury Ratings - 20 DAA, MOOVA ([10]; 1120 g ae/ha in-water): 100% |
| CCCCCCC(C)OC(=O)COc1nc(F)c(Cl)c(N)c1Cl (stereo not drawn) [Fluroxypyr-meptyl (Starane ® Ultra), 1-methylheptyl 2-[(4-amino-3,5-dichloro-6-fluoro-2-pyridinyl)oxy]acetate] | 0.0% | 0.0% | 0.0% | 88.3% | 98.0% | 99.3% | 95.0% | 98.7% | 100.0% | 0.0% | 0.0% | 0.0% | 0.0% | 0.0% | 60.0% | 0% | 0% | 0% | 0% | 25% | Percent (%) Visual Injury Ratings - 20 DAA, ECHCG ([7]; 1120 g ae/ha in-water): 99%; Percent (%) Visual Injury Ratings - 20 DAA, CYDPI ([8]; 280 g ae/ha in-water): 100%; Percent (%) Visual Injury Ratings - 20 DAA, CYDPI ([8]; 560 g ae/ha in-water): 100%; Percent (%) Visual Injury Ratings - 20 DAA, CYDPI ([8]; 1120 g ae/ha in-water): 100%; Percent (%) Visual Injury Ratings - 20 DAA, SCPJU ([9]; 280 g ae/ha in-water): 60%; Percent (%) Visual Injury Ratings - 20 DAA, SCPJU ([9]; 560 g ae/ha in-water): 90%; Percent (%) Visual Injury Ratings - 20 DAA, SCPJU ([9]; 1120 g ae/ha in-water): 100%; Percent (%) Visual Injury Ratings - 20 DAA, MOOVA ([10]; 280 g ae/ha in-water): 85%; Percent (%) Visual Injury Ratings - 20 DAA, MOOVA ([10]; 560 g ae/ha in-water): 100%; Percent (%) Visual Injury Ratings - 20 DAA, MOOVA ([10]; 1120 g ae/ha in-water): 100% |
| O=C(O)COc1ccc(Cl)cc1Cl [2,4-D DMA (Weedar ® 64), dimethylammonium 2-(2,4-dichlorophenoxy)acetate] | 0.0% | 0.0% | 0.0% | 10.0% | 90.0% | 100.0% | 0.0% | 94.3% | 100.0% | 0.0% | 0.0% | 0.0% | 0.0% | 6.7% | 93.3% | 0% | 0% | 0% | 0% | 20% | Percent (%) Visual Injury Ratings - 20 DAA, ECHCG ([7]; 1120 g ae/ha in-water): 80%; Percent (%) Visual Injury Ratings - 20 DAA, CYDPI ([8]; 280 g ae/ha in-water): 90%; Percent (%) Visual Injury Ratings - 20 DAA, CYDPI ([8]; 560 g ae/ha in-water): 100%; Percent (%) Visual Injury Ratings - 20 DAA, CYDPI ([8]; 1120 g ae/ha in-water): 100%; Percent (%) Visual Injury Ratings - 20 DAA, SCPJU ([9]; 280 g ae/ha in-water): 70%; Percent (%) Visual Injury Ratings - 20 DAA, SCPJU ([9]; 560 g ae/ha in-water): 100%; Percent (%) Visual Injury Ratings - 20 DAA, SCPJU ([9]; 1120 g ae/ha in-water): 100%; Percent (%) Visual Injury Ratings - 20 DAA, MOOVA ([10]; 280 g ae/ha in-water): 90%; Percent (%) Visual Injury Ratings - 20 DAA, MOOVA ([10]; 560 g ae/ha in-water): 100%; Percent (%) Visual Injury Ratings - 20 DAA, MOOVA ([10]; 1120 g ae/ha in-water): 99% |
